Laboratory results taken from article PMC3904085 (Frontiers in Neuroscience, 2014).
Entries after “also recorded” stand apart in the source; their conditions may differ. Where two headings read alike, the source gives them in different places.

Tests used:
[1] = tested on: C57Bl/6 mice; assay: DRL 36-s schedule of reinforcement in wild-type mice; assay type: in vivo, mouse; conditions: for Lever Presses Mean / Reinforcers Mean: WT mice DRL-36-s, raw data
Text: (§1) The levers in these chambers were mounted on one wall with an adjacent food magazine next to the lever in the middle of the wall. A reinforced response caused a clicker apparatus to activate and the pellet feeder to deposit one 45-mg sucrose pellet (BioServ, Frenchtown, NJ) into the food magazine. The house light, which was mounted on the ceiling, was turned on when the session began, remained on throughout the entire session, and was turned off at the end of the session. Each experimental chamber was enclosed in a melamine sound-attenuating cubicle and equipped with a white noise generator to provide masking noise.
(§2) Each mouse was initially trained under a variable time 60-s operant schedule for 5 days, followed by fixed ratio-1 ratio schedule for 5 days. After the mice had acquired lever-pressing behavior, they were trained during daily DRL 6-s sessions for ~1 week, then mice progressed through weekly ascending DRL requirements (12, 18, 24, 30 s) before moving to DRL 36-s sessions. […] Experimental sessions lasted for 45 min and were conducted 5 days/week during light hours.
(§3) Drugs were administered to the animals once or twice weekly with at least 1 week between subsequent drugs to minimize possible carryover effects. Drug treatments were administered on Tuesdays and Fridays. No treatments were administered on other test days. Wednesdays were control days. “Control” behavior was calculated as the pooled mean lever presses or reinforcers received during Wednesday sessions across all Wednesdays for the duration of each study. Performance was normalized to percent of control by dividing total responses (or reinforcers) for each drug or vehicle treatment by the mean number of responses (reinforcers) in the respective pooled control condition, multiplied by 100.
(§4) The data analyses were conducted on the raw response and reinforcement data. All behavioral data are expressed as the mean ± s.e.m. normalized to the control condition.

[2] = tested on: mice lacking OX1 receptors; assay: DRL 36-s schedule of reinforcement in OX1 KO mice; assay type: in vivo, mouse; conditions: for Lever Presses Mean / Reinforcers Mean: OX1 KO mice DRL-36-s, raw data
Text: (§5) Rats were acclimated to housing conditions for 4 days, followed by sham dosing once daily for 3 days, prior to the experiment. For DRL experiments, male Sprague–Dawley rats weighing between 300 and 350 g at the beginning of the behavioral experiments (Holtzman, Madison, WI) were housed in pairs. For mouse DRL studies, male C57Bl/6 mice (Taconic Farms, Hudson, NY) or mice lacking either OX1 or OX2 receptors, around 8 weeks of age, were obtained from private breeding colonies at Taconic Farms (Hudson, NY). OX1 and OX2 receptor knockout mice were generated using in vitro fertilization of embryos in C57Bl/6 female mice with sperm harvested from male mice obtained from the University of Texas Southwestern Medical Center (Dallas, TX), and backcrossed for at least 10 generations. Mice and rats were housed in separate colony rooms, which were maintained at 22°C and 60% relative humidity. For rat DRL experiments, water was available for a 20-min period following the daily behavioral session. Based on recommendations from the animal care and use committee, the mouse DRL assay was developed using food deprivation rather than water deprivation. […] All experiments were conducted during the light cycle and in compliance with the Guide for the Care and Use of Laboratory Animals under protocols approved by a local animal care and use committee.
as §1, §2, §3, §4

[3] = set-up: method as in earlier work; conditions: ref Fitch et al., unpublished results; Anderson et al., under review; cited from earlier work
[4] = Rat exposure (plasma and brain pharmacokinetics); assay type: in vivo, Sprague–Dawley rats; conditions: for concentration at 2 h / Cmax / Tmax / AUC(0-t): male, Sprague-Dawley; for AUC(0-t): read-out: AUC0–6 h
Experimental: Two cohorts of rats were used in each study, with samples taken from one cohort at 0.5, 1, and 2 h post-dose, and samples taken from the second cohort at 1.5, 4, and 6 h post-dose. The first cohort of animals was sacrificed at 2 h post-dose, and the second at 6 h post-dose to allow for collection of brain samples.

[5] = tested on: c-Fos protein in rat medial prefrontal cortex; assay: Restraint-stress-induced c-Fos activation (ELISA); conditions: 30 mg/kg
Experimental: Thirty min later, rats were restrained in a rigid plastic flat-bottom restraint tube (Braintree Scientific, Inc.; Braintree, MA, USA) for 20 min. After the 20 min stress period, rats were moved to a new cage and housed individually. Rats were sacrificed 2 h after stress onset. […] Immediately after sacrifice, brains were removed, the medial prefrontal cortex (mPFC), a brain area implicated in the pathophysiology of depression, was dissected from both hemispheres and frozen in 1.5 ml centrifuge tubes in dry ice, and stored at −80°C for later analysis.
Frozen mPFC tissues were removed from the −80°C freezer and placed on ice. Tissue was homogenized with a dounce homogenizer. The nuclear extract was prepared from the homogenized samples as per manufacturer's instructions using a CHEMICON ®Nuclear Extraction Kit (Millipore; Billerica, MA, USA). Protein concentrations were determined in the nuclear extracts using the Pierce BCA Protein Assay kit (Pierce Biotechnology, Inc., Rockford, IL, USA). Nuclear fractions were then assayed for Fos protein levels using the Pierce c-Fos Transcription Factor Kit (Pierce Biotechnology, Inc., Rockford, IL, USA), according to the manufacturer's instructions. […] Data were analyzed and plotted using GraphPad Prism (GraphPad Software, Inc.; La Jolla, CA, USA).

[6] = Plasma and brain binding by equilibrium dialysis (unbound fraction); assay type: in vitro ADME; conditions: rat, equilibrium dialysis at 1 μM
[7] = tested on: mice lacking OX2 receptors; assay: DRL 36-s schedule of reinforcement in OX2 KO mice; assay type: in vivo, mouse; conditions: for Lever Presses Mean / Reinforcers Mean: OX2 KO mice DRL-36-s, raw data
Text: as §5, §1, §2, §3, §4

[8] = tested on: Sprague–Dawley rats; assay: DRL 72-s schedule of reinforcement in rats; assay type: in vivo, rat; conditions: for Lever Presses Mean / Reinforcers Mean: HSD rats DRL-72-s, raw data
Text: Each chamber was enclosed in a melamine sound-attenuating cubicle. A white noise generator provided masking noise. The interior of each chamber consisted of three levers mounted on one wall with a house light mounted on the opposite wall. The house light was turned on at initiation of each test session and was turned off at the termination of each session. A water access port was situated next to the lever in the middle of the wall, wherein a reinforced response caused a clicker apparatus to sound paired with a dipper (0.02-ml cup) to be lifted from a water trough to an opening in the floor of the access port for 4 s.
Rats were initially trained under an alternative fixed ratio 1 water reinforcement schedule with a fixed 1-min time schedule for automatic reinforcement. Thus, each response was reinforced, with water also provided every minute in the absence of a response. […] Following acquisition of lever-pressing behavior, rats were trained daily on DRL 18-s sessions for ~2 weeks, following which they were advanced to DRL 72-s sessions. Responding on these sessions became stable after ~8 weeks. Experimental test sessions lasted for 1 h and were conducted 5 days/week during light hours.
as §3, §4

[9] = mice lacking OX1 receptors, DRL-36-s, 20 mg/kg
[10] = 30 mg/kg PO, two hours post treatment, Ctotal × Fu

Cu (unbound concentration) brain [4, 10]: 0.67 nM
Cu (unbound concentration) plasma [4, 10]: 3.52 nM
concentration at 2 h ([4]; brain, 30 mg/kg IP, two hours post treatment, read-out: Brain concentration): 77.2 ng/g
concentration at 2 h ([4]; brain, 30 mg/kg PO, two hours post treatment, read-out: Brain concentration): 33.5 ng/g
Cmax ([4]; plasma, 30 mg/kg IP): 1170 ng/mL
Tmax ([4]; plasma, 30 mg/kg IP): 30 min
AUC(0-t) ([4]; plasma, 30 mg/kg IP): 1300 ng·h/mL
concentration at 2 h ([4]; plasma, 30 mg/kg IP, two hours post treatment, read-out: Plasma concentration): 149 ng/mL
Cmax ([4]; plasma, 30 mg/kg PO): 196 ng/mL
Tmax ([4]; plasma, 30 mg/kg PO): 30 min
AUC(0-t) ([4]; plasma, 30 mg/kg PO): 269 ng·h/mL
concentration at 2 h ([4]; plasma, 30 mg/kg PO, two hours post treatment, read-out: Plasma concentration): 45.8 ng/mL
fraction unbound at 1 μM ([6]; brain, read-out: Fu (fraction unbound) brain): 0.0089
fraction unbound at 1 μM ([6]; plasma, read-out: Fu (fraction unbound) plasma): 0.0341
SMILES: Cl.O=S(=O)(c1ccc(F)cc1)N(Cc1ncc[nH]1)c1ccccc1-c1ccccc1 [LSN2424100, N-((1H-imidazol-2-yl)methyl)-N-([1,1′-biphenyl]-2-yl)-4-fluorobenzenesulfonamide hydrochloride]
Lever presses emitted ([1]; C57Bl/6 mice DRL-36-s, 10 mg/kg IP): 50 % of control
Decrease in lever presses emitted, in words ([1]; C57Bl/6 mice DRL-36-s, 20 mg/kg): did not reach statistical significance
Reinforcers received (maximum increase) ([1]; C57Bl/6 mice DRL-36-s, doses 3–20 mg/kg IP, did not reach statistical significance): up to 225 % of control
Lever Presses Mean ([1]; dose 3 mg/kg): 153.38
Reinforcers Mean ([1]; dose 3 mg/kg): 15.00
Lever Presses Mean ([1]; dose 10 mg/kg): 83.88
Reinforcers Mean ([1]; dose 10 mg/kg): 18.75
Lever Presses Mean ([1]; dose 20 mg/kg): 105.43
Reinforcers Mean ([1]; dose 20 mg/kg): 28.00
Lever Presses Mean ([2]; dose 3 mg/kg): 164.38
Reinforcers Mean ([2]; dose 3 mg/kg): 23.13
Lever Presses Mean ([2]; dose 10 mg/kg): 174.75
Reinforcers Mean ([2]; dose 10 mg/kg): 20.00
Lever Presses Mean ([2]; dose 20 mg/kg): 105.25
Reinforcers Mean ([2]; dose 20 mg/kg): 31.75
Lever presses emitted [2, 9]: 50 % of control
Reinforcers received [2, 9]: 200 % of control
Direct effects on food or water intake [3]: no direct effects
Effect on restraint stress-induced increase in c-fos expression in prefrontal cortex ([5]; 30 mg/kg IP 30 min before 20 min restraint): attenuated; also recorded: blocked
c-fos protein levels in prefrontal cortex without stress (home cage) vs vehicle ([5]; 30 mg/kg IP, no restraint stress): no effect
Lever Presses Mean ([7]; dose 10 mg/kg): 171.75
Reinforcers Mean ([7]; dose 10 mg/kg): 18.88
Lever Presses Mean ([7]; dose 20 mg/kg): 160.00
Reinforcers Mean ([7]; dose 20 mg/kg): 23.38
Lever Presses Mean ([7]; dose 40 mg/kg): 158.25
Reinforcers Mean ([7]; dose 40 mg/kg): 26.25
Change in reinforcers received or lever presses emitted, in words ([7]; mice lacking OX2 receptors, doses up to 40 mg/kg): no significant change
Lever Presses Mean ([8]; dose 3 mg/kg): 67.86
Reinforcers Mean ([8]; dose 3 mg/kg): 10.71
Lever Presses Mean ([8]; dose 10 mg/kg): 48.14
Reinforcers Mean ([8]; dose 10 mg/kg): 12.14
Lever Presses Mean ([8]; dose 30 mg/kg IP): 56.00
Reinforcers Mean ([8]; dose 30 mg/kg IP): 15.43
Total lever presses emitted ([8]; rats DRL-72-s, 10 mg/kg, normalized to control days): 60 % of control
Lever presses made ([8]; rats DRL-72-s, 30 mg/kg IP): 70 % of control
Reinforcers received ([8]; rats DRL-72-s, 30 mg/kg IP): 170 % of control
